Assay results from PMC9975698, “Hyperoside alleviates toxicity of β-amyloid via endoplasmic reticulum-mitochondrial calcium signal transduction cascade in APP/PS1 double transgenic Alzheimer's disease mice” (Redox Biology, 2023).

Legend:
Type in all cases: cell-based
[1] = tested on: HT22 cells; assay: Cytoplasmic calcium dynamics (FLIPR Calcium 6); settings: HT22 cells, TG or Aβ 30 μM
Experimental: Intracellular Ca^2+ dynamics were determined using the FLIPR Calcium 6 Assay Kit (Molecular Devices) according to the manufacturer's instructions. Briefly, HT22 was housed at 4 × 10^4 cells per well in a black-walled and clear-bottom 96 multi-well plate (Costar, MA, USA) and treated with Calcium 6 reagent for 1 h.

[2] = tested on: HT22 cells; assay: Cytotoxicity (MTT) assay; settings: aggregated Aβ 30 μM
Experimental: Cytotoxicity was assessed using the MTT (5.0 mg/mL) assay. 4 × 10^3 HT22 cells per well were seeded in 96-well plates. After overnight incubation, cells were treated with Aβ aggregates (30 μM) for 48 h with or without the presence of HYP (20–80 μM). Cells were treated with DMSO as a control. Subsequently, MTT (10 μL) was added to each well for 4 h, followed by the addition of 100 μL of lysis buffer (10% SDS in 0.01 mol/L hydrochloric acid) and overnight incubation. The absorbance was measured at 570 nm the next day. The formula was calculated as a percentage of cell viability: Cell viability (%) = A (treatded) / A (control) × 100%. Data were obtained from three independent experiments in triplicate.

[3] = tested on: HT22 cells; assay: Fluo-3 detection of calcium ion concentration; settings: after addition of Aβ
Experimental: 2 × 10^5 HT22 cells were incubated in 35 mm confocal dishes for 24 h at 37 °C in a CO^2 incubator. A 5 mM Fluo-3 AM stock solution was diluted with Hanks-Balanced Salt Solution (HBSS) to a 5 μM working solution and then added to the cells for 30 min at 37 °C. HT22 cells were washed three times with HEPES-buffered saline and then incubated in an imaging chamber at 37 °C for an additional 10 min. After the addition of 30 μM of Aβ aggregates in HBSS buffer, changes in cellular Ca^2+ levels were monitored by epifluorescence microscopy (Applied Precision DeltaVision Elite, Applied Precision, Inc., United States) using the real-time mode for tracking Fluo-3 changes for 5 min. The data inspection program provided by DeltaVision software was used to measure the intensity of Fluo-3 fluorescence.

[4] = tested on: HT22 cells; assay: Annexin V-PI detection by flow cytometry; settings: BAPTA/AM co-treatment, annexin V-PI staining
Experimental: Apoptosis was detected with Annexin V staining kit (BD Biosciences, CA, USA). […] The number of apoptotic cells was quantified by flow cytometry (BD FACSAria III, CA, USA). Data acquisition and analysis were performed with CellQuest (BD Biosciences) from three independent experiments.

[5] = tested on: HT22 cells; assay: Mitochondrial membrane potential by JC-1; settings: CCCP positive control
Excerpt: The mitochondrial membrane potential of HT22 stained with 5,5′,6,6′-tetrachloro-1,1′,3,3′-tetraethylbenzimidazolyl cobalt iodide (JC-1) was observed by laser scanning confocal microscopy.

C/C=C(/C)C(=O)O[C@H]1C(C)=C2[C@H]([C@@H]1OC(=O)CCCCCCC)[C@@](C)(OC(C)=O)C[C@H](OC(=O)CCC)[C@@]1(O)[C@H]2OC(=O)[C@@]1(C)O [TG, Thapsigargin, reference compound]
dynamic Ca2+ level, inducer alone [1]: prompt increase in Ca^2+ level

Aβ: Aβ (1–42) peptide incubated at 37 °C for 5 days to form Aβ aggregates [reference compound]
cell death by aggregated Aβ alone [2]: induced cell death in HT22
Fluo-3 fluorescence intensity (Ca2+ level) [3]: significant increase of fluorescence intensity

CC(=O)OCOC(=O)CN(CC(=O)OCOC(C)=O)c1ccccc1OCCOc1ccccc1N(CC(=O)OCOC(C)=O)CC(=O)OCOC(C)=O [BAPTA/AM]
percentage of Aβ-induced cell death [4]: decrease the percentage of Aβ-induced cell death

Carbonyl cyanide m-chlorophenyl hydrazine [CCCP, reference compound]
mitochondrial membrane potential (JC-1) [5]: loss of membrane potential
